Structures are written as SMILES. Bounds are passed on as bounds.

The term IC50 denotes the concentration that inhibits the measured activity by half. The low end stands for inhibition by little substance, the high end for a need for much substance.

The test system of experiment [1] is K562. Put plainly: MTT cell viability assay, K562 cells. Format: cell-based. The note with it: Homo sapiens, 48 h drug exposure. The protocol:
K562 [American Type Culture Collection (ATCC) reference number CCL-243]. This a human cancer cell line derived from the bone marrow of a person with CML.
(§1) Cell viability was assayed by measuring the mitochondrial reduction of the tetrazolium salt 3-(4,5-methyltiazol-2yl)-2,5diphenyl-tetrazolium bromide] (MTT) (Applichen; A2231,0010) [Mosmann T. J Immunol Methods. 1983 16;65(1-2):55-63 (ref. 36); Chuan Y-C et al 2010. Oncogene. 29 (10), 1531-1542 (ref. 37)]. Cells were seeded in 96-well plates in medium (either RPMI, DMEM or McCoys depending on the recommendations from the ATCC) supplemented with 10% FBS (Lonza Cat. N°: 14-502F), 2mM L-Glut (Lonza Cat. N°: BE17-605E) and 100U/ml PEST (Lonza Cat. N°: DE17-605E) at a cell density of 1000-5000 cells/well (96 well plate). Cells were seeded at a density according to their exponential growth phase (normally 1000 to 5000/well). The cells were cultured at 37 °C in the dark in air containing 5% CO2. After 24h either vehicle (0.05% DMSO) or drug were added to culture medium at the indicated concentrations (10 to 0,01microM). After another 48 h, MTT (0.3 mg/ml) was added to cells, followed by incubation for 2-4h at 37 °C in the dark. The medium was then removed and the precipitated formazan was solubilized by the addition of DMSO (200 µL).
(§2) The optical density was measured at 595 nm with the iMark Microplate Reader (BioRad, USA). Data was expressed as percent growth above the level in controls and the results in figures were plotted as means ± SEM of each test point from 3 replicates.
(§3) Statistical analysis. The concentration of drug that provokes 50% reduction of cell viability (IC50) was determined by using non-linear regression analysis and data were fitted to a log concentration vs normalized response curve in GraphPad software v5 (San Diego, CA).

Experiment [2] has as its system MDA-MB-231. Put plainly: MTT cell viability assay, MDA-MB-231 cells. Format: cell-based, human. The note with it: 48 h drug exposure. The procedure: MDA-MB-231 [American Type Culture Collection (ATCC) reference number HTB-26]. This a human breast cancer cell line derived from a metastatic site from a person.
as §1, §2, §3
(In general: Formazan colour is commonly taken as a measure of viable cells.)

For experiment [3], the system named is HEL 92.1.7. The experiment in a line: MTT cell viability assay, HEL cells. It counts as cell-based. The note with it: Homo sapiens, 48 h drug exposure. The procedure: HEL 92.1.7 [American Type Culture Collection (ATCC) reference number TIB-180]. This a human cancer cell line derived from the bone marrow of a person with erythroleukemia, which is a form of AML.
as §1, §2, §3

On to `O=C1C2=C(C(=O)c3ccccc31)N(c1ccc(Cl)cc1)Cc1ccccc1O2` [Compound 3], for which inhibition in experiment [1] was half-maximal at 0.9 µM (IC50). Still for that read-out and setting: to `O=C1C2=C(C(=O)c3ccccc31)N(c1ccccn1)Cc1ccccc1O2` [Compound 5, 12-(pyridin-2-yl)-12,13-dihydrobenzo[f]naphtho[2,3-b][1,4]oxazepine-6,11-dione] belongs 0.43 µM; to `COc1cccc2c1OC1=C(C(=O)c3ccccc3C1=O)N(c1ccc(C(N)=O)cc1)C2` [Compound 7], 0.89 µM; to `COc1ccc2c(c1)OC1=C(C(=O)c3ccccc3C1=O)N(c1ccc(C#N)cc1)C2` [Compound 14], 0.97 µM. With `O=C(O)c1ccc(N2Cc3ccccc3OC3=C2C(=O)c2ccccc2C3=O)cc1` [Compound 18], the IC50 in experiment [1] is > 10 µM.

As to `NS(=O)(=O)c1ccc(N2Cc3cc(Cl)ccc3OC3=C2C(=O)c2ccccc2C3=O)cc1` [Compound 20], the half-maximal inhibitory concentration (IC50) in experiment [1] was 1.42 µM. The compound `NC(=O)c1ccc(N2Cc3cc(Cl)ccc3OC3=C2C(=O)c2ccccc2C3=O)cc1` [Compound 21] gave an IC50 in experiment [1] of 1.12 µM. The IC50 values of the last two compounds are within 1.5-fold of each other.

In experiment [2] (Homo sapiens), `O=C1C2=C(Oc3ccccc3CN2c2cccnc2)C(=O)c2c1cccc2[N+](=O)[O-]` [Compound 27] yielded an IC50 of 1.73 µM. In other words, the single-digit micromolar range. On the same count and under the same terms, the result for `O=C1C2=C(C(=O)c3c1cccc3[N+](=O)[O-])N(c1cccnc1)Cc1ccccc1O2` [Compound 28] reads 2 µM. On the same count and under the same terms, the result for `NS(=O)(=O)c1ccc(N2Cc3ccccc3OC3=C2C(=O)c2ccc(S(=O)(=O)N4CCOCC4)cc2C3=O)cc1` [Compound 29] reads > 10 µM; that for `COc1ccc(OC)c2c1C(=O)C1=C(C2=O)N(c2ccc(C#N)cc2)Cc2ccccc2O1` [Compound 30], 0.89 µM; that for `COc1cc(F)c(OC)c2c1C(=O)C1=C(Oc3ccccc3CN1c1ccc(C#N)cc1)C2=O` [Compound 31], 1.51 µM. On the same count and under the same terms, to `CN1CCN(c2cc(O)c3c(c2O)C(=O)C2=C(C3=O)N(c3ccc(C#N)cc3)Cc3ccccc3O2)CC1` [Compound 32] belongs 0.79 µM; to `CN1CCN(c2cc(O)c3c(c2O)C(=O)C2=C(C3=O)N(c3cccnc3)Cc3ccccc3O2)CC1` [Compound 33], 0.72 µM. In turn, `N#Cc1ccc(N2Cc3ccccc3OC3=C2C(=O)c2c(O)cc(F)c(O)c2C3=O)cc1` [Compound 34] displayed an IC50 in experiment [2] (Homo sapiens) of 0.74 µM. `COc1cc(F)c(OC)c2c1C(=O)C1=C(Oc3ccccc3CN1c1cccnc1)C2=O` [Compound 35] displayed an IC50 in experiment [2] (Homo sapiens) of 0.8 µM. This IC50 and that of the compound before are within 1.5-fold of each other. For the compound `COc1ccc(N2Cc3ccccc3OC3=C2C(=O)c2c(O)ccc(O)c2C3=O)cc1` [Compound 46], the IC50 in experiment [3] is 0.11 µM; in experiment [2] (Homo sapiens), 0.25 µM.

Consider `O=C1C2=C(C(=O)c3c(O)ccc(O)c31)N(c1ccc(Cl)nc1)Cc1ccccc1O2` [Compound 47, 12-(6-chloropyridin-3-yl)-7,10-dihydroxy-12,13-dihydrobenzo[f]naphtho[2,3-b][1,4]-oxazepine-6,11-dione], for which the half-inhibitory concentration (IC50) in experiment [2] (Homo sapiens) turned out to be 0.33 µM. Consider `COC(=O)c1ccc(N2Cc3ccccc3OC3=C2C(=O)c2c(O)ccc(O)c2C3=O)cc1` [Compound 48], for which the IC50 worked out at 0.1 µM in experiment [3] and 0.27 µM in experiment [2] (Homo sapiens). Compound `O=C(O)c1ccc2c(c1)CN(c1ccccc1)C1=C(O2)C(=O)c2c(O)ccc(O)c2C1=O` [Compound 50] had an IC50 in experiment [3] of 2.42 µM. Take `CCOC(=O)c1ccc2c(c1)CN(c1cccnc1)C1=C(O2)C(=O)c2c(O)ccc(O)c2C1=O` [Compound 51]: the IC50 was 3.31 µM in experiment [3] and 0.6 µM in experiment [2] (Homo sapiens). `O=C(O)c1ccc2c(c1)CN(c1cccnc1)C1=C(O2)C(=O)c2c(O)ccc(O)c2C1=O` [Compound 52]: the IC50 in experiment [3] and in experiment [2] (Homo sapiens) was > 10 µM each time. Take `CC(=O)Oc1ccc(OC(C)=O)c2c1C(=O)C1=C(C2=O)N(c2ccc(C(=O)O)cc2)Cc2ccccc2O1` [Compound 53]: the IC50 in experiment [3] was found to be 0.12 µM; in experiment [2] (Homo sapiens), 0.64 µM.

In the case of `O=C(O)c1ccc(N2Cc3ccccc3OC3=C2C(=O)c2c(O)ccc(O)c2C3=O)cc1` [Compound 57], the IC50 worked out at 0.13 µM in experiment [3] and 1.17 µM in experiment [2] (Homo sapiens). The compound `O=C1C2=C(C(=O)c3c(O)ccc(O)c31)N(c1ccc(C(=O)N3CCOCC3)cc1)Cc1ccccc1O2` [Compound 58, 7,10-dihydroxy-12-(4-(morpholine-4-carbonyl)phenyl)-12,13-dihydrobenzo[f]naphtho[2,3-b][1,4]oxazepine-6,11-dione] came in with an IC50 in experiment [2] (Homo sapiens) of 0.5 µM. Take `CC(=O)Oc1ccc(OC(C)=O)c2c1C(=O)C1=C(C2=O)N(c2cccnc2)Cc2ccccc2O1` [Compound 60, 6,11-dioxo-12-(pyridin-3-yl)-6,11,12,13-tetrahydrobenzo[f]naphtho[2,3-b][1,4] oxazepine-7,10-diyl diacetate]: the IC50 is 0.08 µM in experiment [3] and 0.41 µM in experiment [2] (Homo sapiens). On to `NCCN(CCO)c1ccc(N2Cc3ccccc3OC3=C2C(=O)c2c(O)ccc(O)c2C3=O)cn1` [Compound 63], for which the IC50 turned out to be 0.09 µM in experiment [3] and 0.25 µM in experiment [2] (Homo sapiens). The like results for `CC(=O)Oc1ccc(OC(C)=O)c2c1C(=O)C1=C(C2=O)N(c2ccc(C#N)cc2)Cc2ccccc2O1` [Compound 67, 12-(4-cyanophenyl)-6,11-dioxo-6,11,12,13-tetrahydrobenzo[f]naphtho[2,3-b][1,4] oxazepine-7,10-diyl diacetate] were, in that order, 0.23 µM and 0.28 µM.

In turn, `N#Cc1ccc(N2Cc3ccccc3OC3=C2C(=O)c2ccc(S(=O)(=O)N4CCOCC4)cc2C3=O)cc1` [Compound 70] returned an IC50 in experiment [2] (Homo sapiens) of 7.1 µM.

In turn, `O=C1C2=C(C(=O)c3ccc(S(=O)(=O)N4CCOCC4)cc31)N(c1cccnc1)Cc1ccccc1O2` [Compound 71] gave an IC50 in experiment [2] (Homo sapiens) of 3.2 µM.

For the compound `CN(C)CCOc1ccc(N2Cc3ccccc3OC3=C2C(=O)c2ccccc2C3=O)cn1` [Compound 72], in experiment [2] (Homo sapiens), the IC50 was 0.72 µM. Still for that read-out and setting: the result for `N#Cc1ccc(N2Cc3ccccc3OC3=C2C(=O)c2ccc(Br)c(O)c2C3=O)cc1` [Compound 74, 4-(8-bromo-7-hydroxy-6,11-dioxo-6,11-dihydrobenzo[f]naphtho[2,3-b][1,4]oxazepin-12(13H)-yl)benzonitrile] reads 1.8 µM. On the same count and under the same terms, to `CS(=O)(=O)Nc1cccc2c1C(=O)C1=C(C2=O)N(c2ccc(C#N)cc2)Cc2ccccc2O1` [Compound 78, N-(12-(4-cyanophenyl)-6,11-dioxo-6,11,12,13-tetrahydrobenzo[f]naphtha [2,3-b][1,4]oxazepin-7-yl)methanesulfonamide] belongs 6.9 µM. Same read-out and setting: the result for `NS(=O)(=O)c1ccc(N2Cc3ccccc3OC3=C2C(=O)c2cccc([N+](=O)[O-])c2C3=O)cc1` [Compound 79] reads 6.8 µM; that for `NS(=O)(=O)c1ccc(N2Cc3ccccc3OC3=C2C(=O)c2c(cccc2[N+](=O)[O-])C3=O)cc1` [Compound 80], 6.6 µM. As for `CC(=O)Oc1ccc(OC(C)=O)c2c1C(=O)C1=C(C2=O)N(c2cccc(C#N)c2)Cc2ccccc2O1` [Compound 82, 12-(3-cyanophenyl)-6,11-dioxo-6,11,12,13-tetrahydrobenzo[f]naphtho[2,3-b][1,4] oxazepine-7,10-diyl diacetate], the IC50 in experiment [3] is 0.18 µM; in experiment [2] (Homo sapiens) it was 0.8 µM. `CC(=O)Oc1ccc(O)c2c1C(=O)C1=C(C2=O)N(c2ccccc2)Cc2ccccc2O1` [Compound 88] came in with an IC50 in experiment [3] of 0.08 µM. This lies in the double-digit nanomolar range.

`CC(=O)Oc1ccc(O)c2c1C(=O)C1=C(Oc3ccccc3CN1c1cccnc1)C2=O` [Compound 90] came in with an IC50 in experiment [3] of 0.09 µM. Take `COc1ccc(OC)c2c1C(=O)C1=C(C2=O)N(c2cccc(C#N)c2)Cc2ccccc2O1` [Compound 94]: the IC50 in experiment [2] (Homo sapiens) turned out to be 1 µM.

In the case of `CC(=O)Oc1ccc(OC(C)=O)c2c1C(=O)C1=C(Oc3ccccc3C(c3ccc(N(C)C)nc3)N1)C2=O` (centres unmarked) [Compound 95, 12-(6-(dimethylamino)pyridin-3-yl)-6,11-dioxo-6,11,12,13-tetrahydrobenzo[f]naphtha [2,3-b][1,4]oxazepine-7,10-diyl diacetate], the IC50 in experiment [2] is 0.15 µM. This counts as sub-micromolar. Same read-out and setting: to `CC(=O)Oc1ccc(OC(C)=O)c2c1C(=O)C1=C(Oc3ccccc3C(c3ccc(N4CCOCC4)nc3)N1)C2=O` (centres unmarked) [Compound 96, 12-(6-morpholinopyridin-3-yl)-6,11-dioxo-6,11,12,13-tetrahydrobenzo[f]naphtha [2,3-b][1,4] oxazepine-7,10-diyl diacetate] belongs 0.13 µM.

Regarding `N#Cc1ccc(N2Cc3ccccc3OC3=C2C(=O)c2cccc([N+](=O)[O-])c2C3=O)cc1` [Compound 107], in experiment [2] (Homo sapiens), the half-inhibitory concentration (IC50) came to 5.9 µM. `N#Cc1ccc(N2Cc3ccccc3OC3=C2C(=O)c2c(cccc2[N+](=O)[O-])C3=O)cc1` [Compound 108]: the IC50 in experiment [2] (Homo sapiens) came to 2.95 µM. Compared with the last compound, the IC50 is about 2-fold lower.

(Values after patent publication EP4177246A1, “FUSED OXAZEPINES AS INHIBITORS OF PEROXIREDOXINS” (Centro Atlántico del Medicamento, SA, priority 2021, dated 2023).)
